Results taken from doi:10.1101/2025.10.06.680794v3 (biorxiv, 2026).

Target: p53 core domain (WT p53) (Homo sapiens, UniProt P04637)
Experiment: intrinsic fluorescence quenching
Format: binding

Sequence of p53 core domain (WT p53) (P04637 94-312): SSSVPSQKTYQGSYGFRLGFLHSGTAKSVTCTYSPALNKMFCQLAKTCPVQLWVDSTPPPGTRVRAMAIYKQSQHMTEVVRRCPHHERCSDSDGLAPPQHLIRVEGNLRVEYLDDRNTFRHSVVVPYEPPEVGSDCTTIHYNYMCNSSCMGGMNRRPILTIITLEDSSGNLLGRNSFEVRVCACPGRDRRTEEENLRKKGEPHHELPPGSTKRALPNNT

Kd: 9.8 ± 0.1 µM
Compound: CC1(C)CC(NCC(=O)N2C/C(=C\c3ccc(C#N)cc3)C(=O)/C(=C/c3ccc(C#N)cc3)C2)C(C)(C)N1[O] (stereo not shown) [AKT-100]
